What was measured:
[1] = Inhibition of Influenza A virus H5N1 neuraminidase
[2] = Cytotoxicity against human A549 cells by SRB assay; assay type: toxicity, cell-based

Row | Structure (SMILES) | IC50 [1] | CC50 [2]
1 | C/C(=N\NC(=O)c1ccc(O)cc1)c1ccc(NC(=O)Cc2cccs2)cc1 | 0.65 µM | –
2 | C/C(=N\NC(=O)Cc1cccc2ccccc12)c1ccc(NC(=O)c2ccco2)cc1 | 46.8 µM | –
3 | C/C(=N\NC(=O)c1ccc([N+](=O)[O-])cc1)c1ccc(NC(=O)Cc2cccs2)cc1 | 6.1 µM | –
4 | C/C(=N\NC(=O)c1ccc([N+](=O)[O-])cc1)c1ccc(NC(=O)c2ccco2)cc1 | 1.53 µM | –
5 | CCC(CC)O[C@@H]1C=C(C(=O)O)C[C@H](N)[C@H]1NC(C)=O [OSELTAMIVIR CARBOXYLATE] | 0.31 µM | 61.2 µM
6 | COc1ccc(C(=O)N/N=C(\C)c2ccc(NC(=O)Cc3cccs3)cc2)cc1 | 0.13 µM | 37.6 µM
7 | C/C(=N\NC(=O)c1ccc(F)cc1)c1ccc(NC(=O)c2ccco2)cc1 | 19.4 µM | –
8 | C/C(=N\NC(=O)c1ccc(Cl)cc1)c1ccc(NC(=O)Cc2cccs2)cc1 | 0.31 µM | –
9 | C/C(=N\NC(=O)c1ccc(C(C)(C)C)cc1)c1ccc(NC(=O)Cc2cccs2)cc1 | 0.94 µM | –
10 | C/C(=N\NC(=O)c1ccc(O)cc1)c1ccc(NC(=O)c2ccco2)cc1 | 0.2 µM | –
11 | COc1ccc(C(=O)N/N=C(\C)c2ccc(NC(=O)c3ccco3)cc2)cc1 | 32 µM | –
12 | C/C(=N\NC(=O)c1ccc(F)cc1)c1ccc(NC(=O)Cc2cccs2)cc1 | 23.6 µM | 55.3 µM
13 | C/C(=N\NC(=O)c1ccc(C(C)(C)C)cc1)c1ccc(NC(=O)c2ccco2)cc1 | 28.6 µM | –
14 | C/C(=N\NC(=O)c1ccc(Cl)cc1)c1ccc(NC(=O)c2ccco2)cc1 | 21.3 µM | –
15 | C/C(=N\NC(=O)Cc1cccc2ccccc12)c1ccc(NC(=O)Cc2cccs2)cc1 | 2.78 µM | –

Reference: ChEMBL document CHEMBL5634169 (Bioorg Med Chem Lett, 2024)
